Laboratory results reported in patent US7781580B2, “Stilbene derivatives as new cancer therapeutic agents” (Virginia Commonwealth University, priority 2007, dated 2010).
Read-outs that look alike come from different tables or passages of the source.

Tests used:
[1] = test system: UCI101 ovarian cancer cells; assay: Alamar Blue cell growth inhibition, UCI101; type: cell-based; conditions: UCI101, 48 hours
Method: Cell growth was measured by AlamarBlue™ staining and the percentage of cell growth inhibition was calculated and compared with the control cells that were treated with 0.1% DMSO, the vehicles for the stilbene compounds.
Cells were treated with the tested drug for 2 days before analysis of cell growth by Alamar Blue™ staining. Cells treated with 0.1% DMSO were used as control and set as 100%.
(a) In vitro sensitivity of UCI101 cells toward three potential stilbene prodrugs, 5a-c, was tested in 96-well plates using Alamar Blue™ assays to determine cell growth inhibition. […] (b) 5b induces cell cycle change and apoptosis in UCI101 cells. Cells were incubated with 5b at 1, 3, 10 μM for 16 hours followed by PI staining and flow cytometry analysis. A subG0/1 population, representing apoptotic cells, appeared along with a decrease of the G1/G2 ratio after cells were treated with 3 μM 5b. Higher concentration (10 μM) of 5b completely killed cells, as was the case with stilbene 4a at […]. (c) Cells treated with stilbene 4a and 5b were stained with phospho-histone 3B, a mitotic marker. The positive signals of phospho-histone 3B were shown in green and nuclei were stained with DAPI in blue. […] (d) In vivo efficacy of 5b compared with stilbene 4a. Nude mice were injected with UCI101 ovarian cancer cells and treated with 7 doses of 5b,c or stilbene 4a every 2-3 days. Tumor volume was calculated and plotted against days.
(§1) Various cancer cell lines were grown in 96-well plates for drug sensitivity assays. Once cells achieved 50% confluence, the incubation media was changed to the same cell growth media with different concentrations of the tested compounds or vehicle alone. Cells were then incubated for 48 hours before the cell growth inhibition study. To determine the degree of cell growth inhibition, 1/10 volume of Alamar Blue™ solution was added to each well and optical density (OD) at 570 and 600 nm was determined. The percentage of growth inhibition was calculated according to the manufacturer's formula as follows: The percentage of growth is [(117216×A570)−(80586×A600)]/[(117216×A^o570)−(80586×A^o600)]×100. In this formula, A570 is the absorbance of the treated samples at 570 nm; A600 is the absorbance of the treated samples at 600 nm; A^o570 is the absorbance of the […] samples at 570 nm; and A^o600 is the absorbance of the untreated samples at 600 nm. The two constants, 117216 and 80586, are the extinction coefficients of Alamar Blue™ at 570 and 600 nm respectively. Each concentration was repeated in triplicate to minimize the error.
(§2) We first tested the cytotoxic effect of various stilbene derivatives for their in vitro efficacy of suppressing tumor cell proliferation. Cells were first plated in 96-well plates at 50% confluence and treated with 0, 0.01, 0.03, 0.1, 0.3, 1.0, 3.0, 10 μM concentrations of stilbene derivatives for 48 hours in triplicate. Alamar Blue™ reagent was added into each well at 1/10 volume and incubated for 2 hours before quantification of the absorbance at 570 and 600 nm.

[2] = test system: MiaPaCa2 pancreatic cancer cells; assay: Alamar Blue cell growth inhibition, MiaPaCa2; type: cell-based
Method: as §1, §2

[3] = clinical studies; cited from earlier work
[4] = test system: MDA-MB231 breast cancer cells; assay: Alamar Blue cell growth inhibition, MDA-MB231; type: cell-based
Method: Cell growth was measured by Alamar Blue™ staining and the percentage of cell growth inhibition was calculated and compared with control cells that were treated with 0.1% DMSO, the vehicles for the stilbene compounds.
as §1, §2

[5] = test system: MDA-MB231 breast cancer cells; assay: cell cycle analysis, MDA-MB231; type: cell-based; conditions: 16 hours
Method: (§3) Cells were treated with various concentrations of stilbene 4a or CA4 for 16 hours followed by PI staining and FACscan analysis. […] A unique feature of stilbene 4a was noted when cells were treated with 30 nM.
(§4) Due to the structural similarity between stilbene 4a and CA4, we investigated the difference in the biological activity of these two compounds in MDA-MB231 breast cancer cells and their Chk2−/− derivatives. […] MDA-MB231 cells were treated with 10 nM stilbene 4a or 1 nM CA4. […] However, a difference in cell cycle change was observed following treatment with 30 nM of stilbene 4a versus 3 nM of CA4. […] This was also the case for cells treated with 100 nM stilbene 4a. A significant subG1/0 population was also noted. […] One possible effect could be a DNA damage response, which is a common mechanism of multiple chemotherapeutic agents but not one of pure microtubule-interfering agents such a paclitaxel or vincristine. […] We then obtained conditional Chk1−/− and Chk2−/− cells, which were derived from the same MDA-MB231 cells for the same flow cytometry analysis. […] In contrast, Chk2−/− cells were more sensitive to stilbene 4a. […] This mechanism is not obvious in higher drug concentrations at which the G2 arrest from microtubule interference is dominant. Therefore, in addition to their microtubule interfering effect, stilbenes have another mechanism to induce cell death. Thus, the use of a Chk2 inhibitor in combination with stilbenes may be a viable approach to enhancing the beneficial therapeutic effects of stilbenes.

[6] = test system: SKOV3 ovarian cancer cells; assay: Alamar Blue cell growth inhibition, SKOV3; type: cell-based
Method: Cells were incubated with various concentrations of the compounds for 48 hours. Cell growth was measured by Alamar Blue™ staining and the percentage of cell growth inhibition was calculated and compared with the control cells that were treated with 0.1% DMSO, the vehicle for the stilbene compounds.
as §1

[7] = test system: UCI101 ovarian cancer cells; assay: Western blot of signal transduction events, UCI101; type: cell-based; conditions: 36 hours
Method: All these agents are microtubule interfering agents but with different binding sites. Cells were harvested at 0, 4, 8, 16 and 36 hours after drug treatment for Western blot analysis. […] Phosphorylation of both Cdc25C and Cdc2 disappeared after 16 hours and slightly recovered at 36 hours. […] Akt phosphorylation decreased after 16 hours of treatment.
In order to understand the mechanism of resistance of stilbenes, various signal transduction pathways were investigated to examine how cells respond to stilbene treatment. UCI101 ovarian cancer cells were treated with stilbenes 4a, 4c or paclitaxel (Taxol) at 0.1 μM for 0, 4, 8, 16 and 36 hours. Cells were harvested for Western blotting. Changes in the kinases involved in cell cycle progression from G2-M transition were first determined in Cdc2, Cdc25c, and mitotic spindle check point regulator BubR1. […] 36 hours after treatment, rephosphorylation of Cdc2 was observed. […] The higher molecular weight isomer of Cdc25c, the mitotic form, increased at 16 and 36 hours. […] A similar study was then performed with other microtubule interfering agents such as combretastatin A4, 13a and vincristine for comparison. A similar trend was observed among these three microtubule interfering agents (FIG. 18).

UCI101 cells = assay: immunofluorescent staining of tubulin, UCI101; type: cell-based; conditions: CA4 10 nM, stilbene 4a 100 nM, 5b 3 μM; 16 hours
Source text: Nuclei were stained with DAPI.

Chk2−/− cells = assay: cell cycle analysis, Chk2-/- MDA-MB231 derivative; type: cell-based; conditions: 16 hours
Method: as §3, §4

Chk1−/− cells = assay: cell cycle analysis, Chk1-/- MDA-MB231 derivative; type: cell-based
Method: as §4

MDA-MB231 cells = assay: immunofluorescent staining of tubulin, MDA-MB231; type: cell-based; conditions: CA4 10 nM, stilbene 4a 100 nM, vincristine 100 nM, 5b 3 μM; 16 hours
Source text: Nuclei were stained with 4′,6-diamidino-2-phenylindole (DAPI). Control cells show the reticular pattern of the microtubule network.

[8] = test system: SNU423 hepatocellular carcinoma cells; assay: Alamar Blue cell growth inhibition, SNU423; type: cell-based
Outline: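 Cells at 50% confluence were treated for 48 h in triplicate with 0-10 μM compound or 0.1% DMSO vehicle. Alamar Blue was added at 1/10 volume for 2 h, and absorbance at 570 and 600 nm gave % growth via the manufacturer's extinction-coefficient formula relative to vehicle controls.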

tumor cell proliferation = assay: suppression of tumor cell proliferation, cell line not stated; type: cell-based; conditions: read-out: IC50, suppressing tumor cell proliferation
Method: as §1

[9] = water solubility of stilbene and carbamate prodrug (salts and free base); type: physicochemical
Method: Stilbene prodrugs may be made by attaching to a stilbene derivative of interest (e.g. a stilbene derivative with anti-tumor activity), chemical groups (or moieties) that render the stilbene derivative more water soluble than before such a modification is carried out. By “water soluble” we mean that more than 20 mg compound can be fully dissolved in 1 mL of water. Further, the chemical groups that are attached to the stilbene derivative to make the derivative water soluble are labile (i.e. removable) in that, upon exposure to in vitro or in vivo hydrolyzing conditions, the chemical groups are removed or dissociated from the stilbene derivative by hydrolysis, releasing the active, anti-tumor form of the stilbene derivative. The chemical groups which are attached may themselves be biologically active, and are, at least, not biologically injurious to cells or mammals. […] As illustrated, morfolinoethyl-urea, morfolinoethyl-carbamate and triethylene glycol (TEG) groups (5a, 5b, 5c, respectively) may be used for this purpose.

Structure (SMILES) | relative potency / activity [1] | relative potency ([2]; MiaPaCa2) | dose above which cardiac toxicity, neurotoxicity and tumor pain were observed [3] | relative potency ([4]; MDA-MB231) | cell cycle change at 10 nM stilbene 4a or 1 nM CA4 [5] | effective concentration ([6]; SKOV) [nM] | effective / active concentration ([6]; SKOV3, 48 hours) [µM] | phosphorylation of Chk1 [7] | microtubule pattern (UCI101 cells) | change of effective concentration versus MDA-MB231 (Chk2−/− cells) | sensitivity versus MDA-MB231 (Chk1−/− cells) | microtubule pattern (MDA-MB231 cells) | relative potency ([8]; SNU423) | effective concentration, blocking cell proliferation ([8]; SNU423, 48 hours) [µM] | IC50 (tumor cell proliferation) [nM] | water solubility (in words) [9] | effective concentration ([2]; MiaPaCa2, 48 hours) | effective concentration ([4]; MDA-MB231, 48 hours) | IC50 (tumor cell proliferation; cell line not stated) [nM] | IC50 ([8]; Homo sapiens, SNU-423, 48 h, read-out: IC50 (50% growth inhibition), SNU423, 48 hours) [nM]
COc1ccc(/C=C\c2cc(OC)c(OC)c(OC)c2)cc1O [combretastatin A4, (Z)-2-Methoxy-5-[2-(3,4,5-trimethoxy-phenyl)-vinyl]-phenol, reference compound] | most active compound | most effective | higher than 68 mg/m^2 | most effective | No change was observed | 10 | 0.01 | do not cause more phosphorylation of Chk1 | complete disruption of microtubules | decreased by three fold | more resistant | did not completely disrupt microtubule formation | most potent compound | 0.003 |  |  |  |  |  | 
COc1cc(/C=C\c2ccc(OC)cc2N)cc(OC)c1.O=C(O)C(=O)O [4b, (Z)2-[2-(3,5-Dimethoxy-phenyl)-vinyl]-5-methoxy-phenylamine oxalate] | less active than stilbene 4a |  |  |  |  |  |  |  |  |  |  |  |  |  | 80 | enhanced by the formation of an oxalate salt |  |  |  | 
COc1cc(O)cc(/C=C\c2ccc(OC)c(N)c2)c1.Cl [10d, (Z)-3-[2-(3-Amino-4-methoxy-phenyl)-vinyl]-5-methoxy-phenol, hydrochloride] | less active than stilbene 4a |  |  |  |  |  |  |  |  |  |  |  |  |  |  |  | above 0.3 μM | above 0.3 μM | 1000 | 300 to 1000
